How the values were obtained:
[1] = target: High affinity nerve growth factor receptor (Homo sapiens) (UniProt P04629); assay: Inhibition of human TRKA assessed as residual activity at 1 uM relative to control
[2] = target: Platelet-derived growth factor receptor beta (Homo sapiens) (UniProt P09619); assay: Inhibition of human PDGFRbeta assessed as residual activity at 1 uM relative to control
[3] = target: T1, Protein kinase C epsilon type (Homo sapiens) (UniProt Q02156); assay: Inhibition of human PKC-epsilon assessed as residual activity at 1 uM relative to control
T1 sequence (whole entry): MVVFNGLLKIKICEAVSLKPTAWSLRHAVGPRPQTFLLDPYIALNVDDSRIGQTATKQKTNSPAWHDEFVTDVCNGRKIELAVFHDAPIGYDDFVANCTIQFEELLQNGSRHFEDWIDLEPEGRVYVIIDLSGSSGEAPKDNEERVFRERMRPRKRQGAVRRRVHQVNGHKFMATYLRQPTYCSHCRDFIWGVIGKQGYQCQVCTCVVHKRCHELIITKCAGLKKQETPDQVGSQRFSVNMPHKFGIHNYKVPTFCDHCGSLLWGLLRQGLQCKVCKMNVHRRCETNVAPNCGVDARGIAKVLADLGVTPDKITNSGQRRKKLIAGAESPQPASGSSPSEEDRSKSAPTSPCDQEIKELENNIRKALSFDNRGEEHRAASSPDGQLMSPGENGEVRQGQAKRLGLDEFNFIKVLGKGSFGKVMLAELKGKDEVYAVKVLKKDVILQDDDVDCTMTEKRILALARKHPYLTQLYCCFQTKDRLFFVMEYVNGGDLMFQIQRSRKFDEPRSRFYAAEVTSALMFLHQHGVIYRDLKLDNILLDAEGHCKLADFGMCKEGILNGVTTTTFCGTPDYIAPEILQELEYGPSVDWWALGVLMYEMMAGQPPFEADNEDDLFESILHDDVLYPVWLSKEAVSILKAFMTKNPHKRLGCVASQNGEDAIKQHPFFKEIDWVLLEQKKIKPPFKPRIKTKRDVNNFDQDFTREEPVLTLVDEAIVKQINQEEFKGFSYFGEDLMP

[4] = target: T2, Discoidin domain-containing receptor 2 (Homo sapiens) (UniProt Q16832); assay: Inhibition of human DDR2 assessed as residual activity at 1 uM relative to control
T2 sequence (whole entry): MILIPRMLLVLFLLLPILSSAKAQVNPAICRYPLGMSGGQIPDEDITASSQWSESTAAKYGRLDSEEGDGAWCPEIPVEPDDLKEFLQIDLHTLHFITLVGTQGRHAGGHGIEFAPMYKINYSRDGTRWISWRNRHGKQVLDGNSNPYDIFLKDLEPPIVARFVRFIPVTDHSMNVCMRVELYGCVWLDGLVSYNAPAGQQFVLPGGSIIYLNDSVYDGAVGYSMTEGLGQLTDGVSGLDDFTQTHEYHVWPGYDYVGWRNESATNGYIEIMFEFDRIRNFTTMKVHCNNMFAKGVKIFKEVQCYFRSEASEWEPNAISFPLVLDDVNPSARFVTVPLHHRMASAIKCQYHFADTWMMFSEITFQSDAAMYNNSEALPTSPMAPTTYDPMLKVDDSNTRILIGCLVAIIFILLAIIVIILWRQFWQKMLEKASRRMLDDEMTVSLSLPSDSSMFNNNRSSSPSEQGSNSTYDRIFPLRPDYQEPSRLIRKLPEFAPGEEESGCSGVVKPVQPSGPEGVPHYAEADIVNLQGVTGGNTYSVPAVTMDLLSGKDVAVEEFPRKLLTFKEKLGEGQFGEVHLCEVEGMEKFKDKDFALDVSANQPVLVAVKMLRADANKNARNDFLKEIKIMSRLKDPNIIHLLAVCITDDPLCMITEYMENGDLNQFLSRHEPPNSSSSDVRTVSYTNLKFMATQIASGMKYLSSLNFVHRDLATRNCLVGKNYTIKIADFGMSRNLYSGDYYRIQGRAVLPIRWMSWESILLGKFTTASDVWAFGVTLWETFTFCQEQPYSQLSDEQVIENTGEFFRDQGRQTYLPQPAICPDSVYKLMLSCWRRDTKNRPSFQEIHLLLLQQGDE

[5] = target: T3, Mitogen-activated protein kinase kinase kinase 7 (Homo sapiens) (UniProt O43318); assay: Inhibition of human TAK1 assessed as residual activity at 1 uM relative to control
T3 sequence (whole entry): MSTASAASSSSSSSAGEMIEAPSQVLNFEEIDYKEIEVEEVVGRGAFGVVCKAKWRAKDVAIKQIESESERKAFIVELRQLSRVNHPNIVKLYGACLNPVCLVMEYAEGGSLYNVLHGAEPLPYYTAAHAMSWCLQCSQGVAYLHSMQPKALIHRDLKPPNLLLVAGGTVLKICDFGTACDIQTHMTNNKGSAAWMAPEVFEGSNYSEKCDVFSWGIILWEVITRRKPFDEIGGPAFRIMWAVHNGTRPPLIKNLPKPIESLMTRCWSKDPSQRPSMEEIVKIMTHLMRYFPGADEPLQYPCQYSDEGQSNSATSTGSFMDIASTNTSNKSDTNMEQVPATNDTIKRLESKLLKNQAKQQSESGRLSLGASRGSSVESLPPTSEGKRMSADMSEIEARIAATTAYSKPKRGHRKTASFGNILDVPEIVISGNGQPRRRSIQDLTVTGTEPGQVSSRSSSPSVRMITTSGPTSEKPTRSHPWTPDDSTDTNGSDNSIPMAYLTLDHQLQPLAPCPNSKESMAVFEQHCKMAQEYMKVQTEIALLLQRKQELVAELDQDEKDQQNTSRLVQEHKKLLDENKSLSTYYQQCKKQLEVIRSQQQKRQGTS

Sequence of Platelet-derived growth factor receptor beta (Homo sapiens) (P09619 whole entry): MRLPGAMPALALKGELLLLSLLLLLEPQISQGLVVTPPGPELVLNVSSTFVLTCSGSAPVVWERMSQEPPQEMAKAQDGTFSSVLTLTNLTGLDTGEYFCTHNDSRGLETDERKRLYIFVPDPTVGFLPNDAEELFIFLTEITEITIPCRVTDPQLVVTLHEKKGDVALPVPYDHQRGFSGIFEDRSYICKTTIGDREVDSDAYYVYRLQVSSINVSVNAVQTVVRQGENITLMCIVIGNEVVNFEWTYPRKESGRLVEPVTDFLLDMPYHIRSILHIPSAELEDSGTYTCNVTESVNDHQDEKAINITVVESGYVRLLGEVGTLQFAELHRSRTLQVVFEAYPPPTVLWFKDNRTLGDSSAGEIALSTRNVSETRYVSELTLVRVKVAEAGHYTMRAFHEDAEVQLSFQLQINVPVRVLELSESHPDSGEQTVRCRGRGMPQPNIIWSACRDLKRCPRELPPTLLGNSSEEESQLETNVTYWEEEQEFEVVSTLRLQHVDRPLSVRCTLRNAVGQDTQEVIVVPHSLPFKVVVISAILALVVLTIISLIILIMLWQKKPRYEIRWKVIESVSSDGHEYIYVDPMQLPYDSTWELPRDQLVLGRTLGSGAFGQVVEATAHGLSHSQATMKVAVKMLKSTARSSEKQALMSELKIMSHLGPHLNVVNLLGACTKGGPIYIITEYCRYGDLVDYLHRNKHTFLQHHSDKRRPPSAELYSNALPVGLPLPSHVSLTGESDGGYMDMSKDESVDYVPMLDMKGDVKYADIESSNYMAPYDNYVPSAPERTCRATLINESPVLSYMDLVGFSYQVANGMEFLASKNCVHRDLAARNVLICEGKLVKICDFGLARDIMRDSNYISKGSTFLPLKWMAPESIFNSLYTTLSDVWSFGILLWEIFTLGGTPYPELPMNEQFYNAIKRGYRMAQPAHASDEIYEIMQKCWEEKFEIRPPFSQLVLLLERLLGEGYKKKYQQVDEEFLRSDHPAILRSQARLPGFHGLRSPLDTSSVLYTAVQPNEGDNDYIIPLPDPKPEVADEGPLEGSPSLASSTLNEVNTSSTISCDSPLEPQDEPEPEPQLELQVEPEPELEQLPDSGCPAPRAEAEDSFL
Sequence of High affinity nerve growth factor receptor (Homo sapiens) (P04629 33-796 limits assumed): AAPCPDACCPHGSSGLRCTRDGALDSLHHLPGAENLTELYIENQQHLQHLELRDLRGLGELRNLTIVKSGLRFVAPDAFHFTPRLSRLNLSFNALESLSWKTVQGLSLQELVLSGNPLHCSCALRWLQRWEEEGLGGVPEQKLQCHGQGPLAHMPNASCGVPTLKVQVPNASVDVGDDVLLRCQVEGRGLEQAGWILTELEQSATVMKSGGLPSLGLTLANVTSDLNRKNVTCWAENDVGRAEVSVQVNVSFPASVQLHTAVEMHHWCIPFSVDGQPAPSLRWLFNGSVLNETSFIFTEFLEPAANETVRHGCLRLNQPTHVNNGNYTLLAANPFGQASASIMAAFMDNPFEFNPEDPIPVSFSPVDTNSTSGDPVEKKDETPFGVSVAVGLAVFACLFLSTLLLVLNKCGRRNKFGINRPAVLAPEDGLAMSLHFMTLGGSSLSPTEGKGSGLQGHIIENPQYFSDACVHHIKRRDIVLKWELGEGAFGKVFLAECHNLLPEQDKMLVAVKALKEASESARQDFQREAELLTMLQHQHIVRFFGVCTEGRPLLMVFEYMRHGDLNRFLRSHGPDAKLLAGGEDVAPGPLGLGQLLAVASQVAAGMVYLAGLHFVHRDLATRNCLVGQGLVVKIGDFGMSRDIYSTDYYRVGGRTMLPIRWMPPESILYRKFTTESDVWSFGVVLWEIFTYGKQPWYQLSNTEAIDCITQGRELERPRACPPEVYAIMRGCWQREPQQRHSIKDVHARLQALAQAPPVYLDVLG

Row | Structure (SMILES) | Activity [1] | Activity [2] | Activity [3] | Activity [4] | Activity [5]
1 | COc1ccc(-c2nc3cc(-c4csc(C(=O)NCC(C)(C)C)c4)cnc3[nH]2)cc1 | 77% | 82% | 90% | 100% | 79%
2 | COc1ccc(-c2nc3cc(-c4csc(C(=O)NCCC(C)C)c4)cnc3[nH]2)cc1 | 67% | 70% | 85% | 101% | 85%
3 | COc1ccc(-c2nc3cc(-c4csc(C(=O)NCC(C)C)c4)cnc3[nH]2)cc1 | 59% | 64% | 96% | 101% | 85%

From ChEMBL document CHEMBL3124838, “Discovery of 6-aryl-azabenzimidazoles that inhibit the TBK1/IKK-ε kinases” (Bioorg Med Chem Lett, 2014)
